Measured values reported in patent publication US20200009221A1, “METHODS FOR INHIBITING NECROSIS” (priority 2010, published 2020).
Residues, ends and D or L forms follow the SMILES beside them. *: point of attachment. MeOSuc = COC(=O)CCC(=O)*; CH2Cl = ClC*

Key:
Format in all cases: cell-based
[1] = test system: U937 cells; experiment: KCN (15 mM)-induced necrosis in U937 cells, LDH release assay, Humanin derivative with Elastase inhibitor III (Example 2); conditions: 7 hours
Description: (§1) The U937 cells are p53 minus monocytic cell line. The cells were grown at 37° C. in the presence of 5% CO2 in RPMI-1640 medium supplemented with 10% heat-inactivated fetal bovine serum (FCS), 2 Mm glutamine, 100 μg/ml penicillin, and 100 μg/ml streptomycin. The cells were split every third day.
(§2) U937 cells were cultured in complete RPMI-1640 medium, washed once and seeded at 4.5×10^5 cells/ml in glucose free medium 1 hour before treatment. Humanin or its derivatives of SEQ ID MOs 1-6 and Elastase inhibitor III (EI-III) and vehicle were added 30 minutes before the addition of KCN (15 mM). Following the treatment, the cells were incubated for 7 hours and cell death was measured via the LDH release assay.
(§3) The amount of LDH released from lysed cells is a sensitive measure of cell death. In this study, necrotic cell death was measured in 96-well plates using Promega's CytoTox 96 Non-Radioactive Cytotoxicity Assay kit, which accurately and rapidly measures cell death by quantitating the release of lactate dehydrogenase (LDH), a stable cytosolic enzyme from lysed cells.
(§4) At the end of each experiment, the cells were centrifuged at 240×g for 10 minutes at room temperature. Next, the supernatant was collected and 50 μL aliquots were taken for the LDH release assay. The LDH content from cells lysed in 0.1% Tryton X-100 for 10-15 minutes was used as a measure for total LDH content. The LDH released in the treatment (after subtracting the blank measure) was used for measuring necrotic cell death as a percentage from total LDH. A measurement of the absorbance value at 490 nm was preformed by ELISA READER, 30 minutes after the addition of the LDH reaction solution.

[2] = test system: U937 cells; experiment: KCN (5 mM)-induced necrosis in U937 cells, LDH release assay, Humanin derivative with Mimosine (Example 3); conditions: 7 hours
Description: as §1
as §2, with “Mimosine” for “Elastase inhibitor III (EI-III)”, “(5” for “(15”
as §3, §4

[3] = test system: U-937 cells; experiment: KCN-induced necrosis in U-937 cells, LDH release (Example 1); conditions: 10 μM peptide, LDH release after 7 hours (FIG. 1)
Description: FIGS. 1A-1B. […] LDH release was measured after 7 hours (see, FIG. 1A) % LDH release with the crude data; (see, FIG. 1B) The amount of LDH released of control cells was subtracted from all treatments, P*<0.02. […] The effects of HN and its derivatives on necrotic cell death induced by staurosporine/oligomicyn in PC12 cells are depicted in FIG. 4 (by LDH release) and FIG. 5 (ethydium bromide and acridine orange staining).

[4] = test system: PC12 cells; experiment: KCN-induced necrosis in PC12 cells, LDH release; conditions: LDH release after 5 hours (FIG. 2 and FIG. 3)
Description: FIGS. 2A-2B. […] LDH release was measured after 5 hours (see, FIG. 2A) % LDH release with the crude data; (see, FIG. 2B) The amount of LDH released from control cells was subtracted from all treatments, P*<0.05. FIG. 3. Is a bar graph showing the effect of different HN17 concentrations on KCN-induced necrosis in PC12 cells as assessed by the determination of LDH release. PC12 cells were treated with or without 7 mM KCN for 5 hours in the presence or absence of different concentrations of HN17 (1-30 μM), and then LDH release from the cells was determined, P*<0.04. […] The effects of HN and its derivatives on necrotic cell death induced by staurosporine/oligomicyn in PC12 cells are depicted in FIG. 4 (by LDH release) and FIG. 5 (ethydium bromide and acridine orange staining).

Compound: COC(=O)CCC(=O)N[C@@H](C)C(=O)N[C@@H](C)C(=O)N1CCC[C@H]1C(=O)N[C@H](C(=O)CCl)C(C)C [EI-III, HLE Inhibitor MeOSuc-AAPV-CMK] (MeOSuc-AAPV-CH2Cl)
- impact on necrotic cell death induced by KCN ([1]; EI-III at 50 μM): no impact
- inhibition of cell death by necrosis ([1]; EI-III at 100 μM): 75%
- inhibition of cell death by necrosis ([1]; EI-III at 300 μM): 75%

Compound: NC(Cn1ccc(=O)c(O)c1)C(=O)O (centres unmarked) [mimosine, Mimosine, reference compound]
- inhibition of necrotic cell death ([2]; mimosine at 30 μM): no inhibition
- inhibition of necrotic cell death ([2]; mimosine at 70 μM): no inhibition
- inhibition of cell death by necrosis ([2]; mimosine at 300 μM): 12%

Compound: MAPAGASCLLLLTGEIDLPVKRRA [AGA-HNG, Humanin derivative]
- impact on necrotic cell death induced by KCN ([1]; AGA-HNG at 1 μM): no impact
- impact on necrotic cell death induced by KCN ([1]; AGA-HNG at 10 μM): no impact
- protection against KCN-induced necrotic cell death as measured by LDH release [3]: conferred protection

Compound: MAPRGFSCLLLLTGEIDLPVKRRA [HNG, Humanin derivative]
- inhibition of necrotic cell death ([2]; HNG at 1 μM): no inhibition
- inhibition of necrotic cell death ([2]; HNG at 10 μM): no inhibition
- inhibition of necrotic cell death ([2]; HNG at 301 μM): no inhibition

Compound: PRGFSCLLLLTSEIDLP [HN17, Humanin derivative; the short name HN17 is also printed for AGA-C8R-HNG17]
- protection against KCN-induced necrotic cell death as measured by LDH release [4]: confers protection
- protection against KCN-induced necrotic cell death as measured by LDH release [3]: conferred protection
